The values that follow are results of earlier work, collected in US20250051323A1 (RICHTER GEDEON NYRT., priority 2021, published 2025).

Like-named read-outs stand apart in the source and are kept apart here.

For data set [1] the following is noted: rats, developmental models of schizophrenia; cited from earlier work.
The conditions of data set [2]: mouse stress models and aged mice; cited from earlier work.
For data set [3] the following is noted: cited from earlier work.
The conditions of data set [4]: low dose; cited from earlier work.

With `C#Cc1ccc2c(c1)C(c1ccccc1F)=N[C@H](C)c1c(C(=O)OCC)ncn1-2` [SH-053-2′F—R—CH3], the “pathological changes of locomotor activity” value in data set [1] is “attenuated pathological changes of locomotor activity”. In data set [2], the behavioural effects entry is “procognitive, anxiolytic and antidepressant effects”.

Turning to `C#Cc1ccc2c(c1)C(c1ccccc1F)=N[C@H](C)c1c(C(=O)NC)ncn1-2` [MP-III-022], the “pathological changes of locomotor activity” value in data set [1] is given as “attenuated pathological changes of locomotor activity”. The cognitive performance result in data set [3] (young rats) is given as “improved cognitive performance”. Besides, in data set [2], the behavioural effects result is “procognitive, anxiolytic and antidepressant effects”. For the compound `O=C1CN=C(c2ccccc2Cl)c2cc([N+](=O)[O-])ccc2N1` [clonazepam], the “symptoms in preclinical models of ASD” value in data set [4] was “ameliorate symptoms”.

With `Cc1ccc(-n2nnc(C)c2COc2cc3c(nn2)CNCC3)cn1` [Compound 44], the cognitive performance entry in data set [3] (aged rats) is “improved cognitive performance”.
